Test results reported in EPA's ToxValDB 9.5.

Tests used:
[1] = system: Rattus norvegicus; settings: for NOAEL / LOAEL: Crl:WI (Han)
[2] = system: Rattus norvegicus; settings: oral
[3] = reproduction developmental, oral, gavage, F, Wistar, generation: F1, F1: body weight + F1: kidney: absolute kidney weight + F1: kidney: relative kidney weight + F1: liver: absolute liver weight + F1: liver: …
[4] = reproduction developmental, oral, gavage, F, Wistar, generation: P0, P0: body weight + P0: developmental toxicity
[5] = reproduction developmental, oral, gavage, M, Wistar, generation: F1, F1: body weight + F1: paternal toxicity
[6] = reproduction developmental, oral, gavage, M, Wistar, generation: P0, P0: body weight + P0: developmental toxicity
[7] = chronic, duration: 123 days, oral, gavage, F, Wistar, Heart: Heart Weight, Relative
[8] = chronic, duration: 123 days, oral, gavage, F, Wistar, Kidney: Kidney, Cortical Tubular Dilation, Multifocal + Whole Body: Body Weight Change
[9] = reproduction developmental, duration: 90 days, oral, gavage, M, generation: P0, P0: General Toxicity: Whole Body: Body Weight Change + P0: General Toxicity: Whole Body: Body Weight, Absolute + P0: General Toxicity: Whole…
[10] = reproduction developmental, duration: 123 days, oral, gavage, F, generation: P0, P0: General Toxicity: Whole Body: Body Weight Change + P0: General Toxicity: Whole Body: Body Weight, Absolute + P0: General Toxicity: Whole…
[11] = subchronic, duration: 90 days, oral, gavage, M, Wistar, Kidney: Blood Urea Nitrogen (BUN), Blood + Kidney: Kidney, Cortical Tubular Dilation, Multifocal + Whole Body: Body Weight Change
[12] = short-term, duration: 28 days, gavage, M/F, Sprague-Dawley, Clinical Observation: Sedation Paleness + Functional Observational Battery: Forelimb grip strength decrease, Motor activity decrease, Motor …
[13] = subchronic, gavage, M, Sprague-Dawley, Water Consumption: increase + Urinalysis: Osmotic pressure decrease, Volume increase, R
[14] = short-term, duration: 28 days, gavage, F, Sprague-Dawley, Clinical Observation: Soiled perigenital fur + Body Weight Changes: Gain decrease + Urinalysis: Pale yellow or yellow/slightly brownish + …
[15] = short-term, duration: 28 days, gavage, M, Sprague-Dawley, Clinical Observation: Soiled perigenital fur + Body Weight Changes: Gain decrease + Urinalysis: Pale yellow or yellow/slightly brownish + …

CC(C)(c1ccc(OP(=O)(Oc2ccccc2)Oc2ccccc2)cc1)c1ccc(OP(=O)(Oc2ccccc2)Oc2ccccc2)cc1 [2,2-Bis[4-[bis(phenoxy)phosphoryloxy]phenyl]propane]
2000 mg/kg-day: NOEL ([1]; acute, duration: 14 days, oral, gavage, F, Crl:CD(SD), body weight gain + toxicity)
200 mg/kg-day: LOEL [1, 3] | LOEL [1, 4] | LOEL [1, 5] | LOEL [1, 6]
1860 mg/kg-day: NOEL ([1]; short-term, duration: 28 days, oral, diet, M, Sprague-Dawley, toxicity)
1000 mg/kg-day: NOEL ([1]; developmental, oral, Sprague-Dawley, generation: F1, F1: embryotoxicity) | NOEL ([1]; developmental, oral, gavage, Crl:CD(SD), generation: F1, F1: embryotoxicity) | NOEL ([1]; reproduction developmental, oral, F, Sprague-Dawley, generation: P0, P0: maternal toxicity) | NOEL ([1]; reproduction developmental, oral, gavage, Crl:CD(SD), generation: F1, F1: fetotoxicity) | NOEL ([1]; reproduction developmental, oral, gavage, Crl:CD(SD), generation: F1, F1: toxicity) | NOEL ([1]; reproduction developmental, oral, gavage, F, Crl:CD(SD), generation: P0, P0: body weight + P0: maternal toxicity) | NOEL ([1]; reproduction developmental, oral, gavage, F, Crl:CD(SD), generation: P0, P0: body weight gain + P0: toxicity) | NOEL ([1]; reproduction developmental, oral, gavage, F, Crl:CD(SD), generation: P0, P0: body weight gain + P0: uterus: Gravid uterus weight) | NOEL ([1]; reproduction developmental, oral, gavage, F, Crl:CD(SD), generation: P0, P0: toxicity) | NOEL ([1]; reproduction developmental, oral, gavage, F, Wistar, generation: F1, F1: toxicity) | NOEL ([1]; reproduction developmental, oral, gavage, F, Wistar, generation: P0, P0: maternal toxicity) | NOEL ([1]; reproduction developmental, oral, gavage, F, Wistar, generation: P0, P0: toxicity) | NOEL ([1]; reproduction developmental, oral, gavage, M/F, Crl:CD(SD), generation: F1, F1: body weight + F1: toxicity) | NOEL ([1]; reproduction developmental, oral, gavage, M, Crl:CD(SD), generation: P0, P0: body weight gain + P0: kidney: kidney: absolute weight + P0: spleen: spleen weight + P0: toxicity) | NOEL ([1]; reproduction developmental, oral, gavage, M, Wistar, generation: F1, F1: toxicity) | NOEL ([1]; reproduction developmental, oral, gavage, M, Wistar, generation: P0, P0: toxicity) | NOEL ([1]; reproduction developmental, oral, gavage, Wistar, generation: F1, F1: developmental toxicity) | NOEL ([1]; short-term, duration: 28 days, oral, gavage, F, Sprague-Dawley, body weight + toxicity) | NOEL ([1]; short-term, duration: 28 days, oral, gavage, F, Sprague-Dawley, liver: absolute liver weight + ovary: ovary weight + toxicity) | NOEL ([1]; short-term, duration: 28 days, oral, gavage, F, Sprague-Dawley, toxicity) | NOEL ([1]; short-term, duration: 28 days, oral, gavage, M, Sprague-Dawley, body weight + toxicity) | NOEL ([1]; short-term, duration: 28 days, oral, gavage, M, Sprague-Dawley, toxicity) | NOEL ([1]; short-term, oral, gavage, F, Sprague-Dawley, toxicity) | NOEL ([1]; short-term, oral, gavage, M, Sprague-Dawley, toxicity) | NOEL ([1]; subchronic, duration: 90 days, oral, gavage, F, Crj:CD, body weight + toxicity) | NOEL ([1]; subchronic, duration: 90 days, oral, gavage, F, Sprague-Dawley, body weight + toxicity) | NOEL ([1]; subchronic, duration: 90 days, oral, gavage, M, Crj:CD, body weight + toxicity) | NOEL ([1]; subchronic, duration: 90 days, oral, gavage, M, Sprague-Dawley, body weight + toxicity) | NOEL ([1]; subchronic, oral, gavage, F, Sprague-Dawley, toxicity) | NOEL ([1]; subchronic, oral, gavage, M, Sprague-Dawley, toxicity)
500 mg/kg-day: NOEL ([1]; reproduction developmental, oral, gavage, F, Crl:CD(SD), generation: P0, P0: body weight gain + P0: maternal toxicity + P0: uterus: gravid uterine weight)
100 mg/kg-day: NOEL ([1]; reproduction developmental, oral, gavage, F, Crl:CD(SD), generation: P0, P0: body weight gain + P0: ovary: ovary weight + P0: toxicity) | NOEL [1, 3] | NOEL [1, 4] | NOEL [1, 5] | NOEL [1, 6]

O=S(=O)(O)CCC(F)(F)C(F)(F)C(F)(F)C(F)(F)C(F)(F)C(F)(F)F [6:2 Fluorotelomer sulfonic acid]
45 mg/kg-day: NEL ([1]; chronic, duration: 123 days, oral, gavage, F, Wistar, Blood: Albumin/Globulin (A/G) Ratio + Blood: Basophils + Blood: Calcium (CA), Blood + Blood: Chloride (CL), Blood + Blood: Cholesterol (CHOL…) | LEL [1, 8] | NOAEL ([1]; developmental, duration: 34 days, parental, M/F, generation: F1, F1: Developmental: Nipples: Nipple Retention + F1: Developmental: Thyroid: Thyroid Gland Weight, Absolute + F1: Developmental: Thyroid: …) | NEL ([1]; developmental, duration: 34 days, parental, M/F, Wistar, generation: F1, F1: Nipples: Nipple Retention + F1: Thyroid: Thyroid Gland Weight, Absolute + F1: Thyroid: Thyroid Gland Weight, Relative + F1: Thyroid: …) | LOAEL [1, 9] | NOAEL ([1]; reproduction developmental, duration: 90 days, oral, gavage, M, generation: P0, P0: Reproductive: Whole Body: Days of Cohabitation + P0: Reproductive: Whole Body: Fertility Index + P0: Reproductive: Whole Body: Percent …) | NEL ([1]; reproduction developmental, duration: 90 days, oral, gavage, M, Wistar, Whole Body: Days of Cohabitation + Whole Body: Fertility Index + Whole Body: Percent Mating) | NOAEL ([1]; reproduction developmental, duration: 123 days, oral, gavage, F, generation: P0, P0: Developmental: Uterus: Abortions + P0: Developmental: Uterus: Litter Loss + P0: Reproductive: Vagina: Uterus (With Cervix) Weight, …) | NOAEL ([1]; reproduction developmental, duration: 123 days, oral, gavage, F, generation: P0, P0: Developmental: Uterus: Post-Implantation Loss + P0: Developmental: Uterus: Pre-Implantation Loss + P0: Reproductive: Ovary: Ovary …) | LOAEL [1, 10] | NEL ([1]; reproduction developmental, duration: 123 days, oral, gavage, F, Wistar, Ovary: Ovary Histopathology + Ovary: Ovary Weight, Absolute + Uterus: Estrous Cycle, Length + Uterus: Post-Implantation Loss + Uterus: Pre-…) | NEL ([1]; reproduction developmental, duration: 123 days, oral, gavage, F, Wistar, generation: P0, P0: Uterus: Abortions + P0: Uterus: Resorptions, Mean/Litter + P0: Vagina: Uterus (With Cervix) Weight, Absolute + P0: Vagina: Vagina …) | NEL ([1]; subchronic, duration: 90 days, oral, gavage, M, Wistar, Blood: Albumin/Globulin (A/G) Ratio + Blood: Basophils + Blood: Calcium (CA), Blood + Blood: Chloride (CL), Blood + Blood: Cholesterol (CHOL…) | LEL [1, 11]
5 mg/kg-day: NEL [1, 7] | LEL ([1]; subchronic, duration: 90 days, oral, gavage, M, Wistar, Kidney: Kidney Weight, Absolute + Kidney: Kidney Weight, Relative + Liver: Albumin (A), Blood + Whole Body: Total Protein (TP), Blood)
15 mg/kg-day: LEL [1, 7] | NEL [1, 8] | NOAEL [1, 9] | NOAEL [1, 10] | NEL [1, 11]

CCOC(N)=O [Urethane]
10 mg/kg-day: NOEL ([2]; subchronic, drinking water, F, Fischer 344, Deaths + Body Weight Changes: decrease + Water Consumption: decrease + Hematology: WBC decrease, Lympho decrease + Blood Chemistry: BUN …)
20 mg/kg-day: NOAEL [2, 12] | NOEL [2, 12]
100 mg/kg-day: LOAEL [2, 12] | LOEL [2, 12]
< 16.7 mg/kg-day: NOEL ([2]; subchronic, drinking water, M/F, Fischer 344, Deaths + Body Weight Changes: decrease + Water Consumption: decrease + Hematology: WBC decrease, Lympho decrease + Blood Chemistry: BUN …) | NOEL ([2]; subchronic, drinking water, M/F, Fischer 344, Deaths + Clinical Observation: Thinness, abnormal posture, and ruffled fur + Body Weight Changes: decrease + Water Consumption: decrease + …)
11 mg/kg-day: NOEL ([2]; subchronic, drinking water, F, Fischer 344, Deaths + Clinical Observation: Thinness, abnormal posture, and ruffled fur + Body Weight Changes: decrease + Water Consumption: decrease + …)

NS(=O)(=O)Cc1noc2ccccc12 [Zonisamide]
20 mg/kg-day: NOAEL ([2]; short-term, duration: 28 days, gavage, M/F, Sprague-Dawley, Deaths + Clinical Observation: Locomotor activity decrease, Ataxic gait Hypotonia, Abdominal region + Body Weight Changes: Body weight gain …)

CC(O)c1ccccc1 (stereo not drawn) [alpha-Methylbenzyl alcohol]
< 93 mg/kg-day: NOEL ([2]; subchronic, duration: 13 weeks, gavage, M/F, Fischer 344, Deaths + Clinical Observation: Ataxia Rapid breathing Lethargy + Body Weight Changes: decrease + Urinalysis: -- + Absolute Organ Weight: …)

O=C(O)[C@H]1CCCC[C@H]1C(=O)O [cis-1,2-Cyclohexanedicarboxylic acid]
300 mg/kg-day: NOEL ([2]; subchronic, gavage, M, Sprague-Dawley, Deaths + Clinical Observation: Dead (4/12)Soiled perigenitalia of urine + Hematology: WBC increase, Neutrophils(%) increase, Lymphocytes(%) …)

NCCS(=O)(=O)O [l-Taurine]
1000 mg/kg-day: LOEL [2, 13] | NOAEL [2, 13]
300 mg/kg-day: NOEL [2, 13]

CCC(C)(C)OC [tert-Amyl methyl ether]
125 mg/kg-day: NOAEL ([2]; short-term, duration: 29 days, gavage, M/F, Sprague-Dawley, Deaths + Clinical Observation: Rales Anogenital staining + Body Weight Changes: Mean body weight decrease + Food Consumption: decrease + …)

CCC(C)(C)c1ccccc1 [tert-Pentylbenzene]
300 mg/kg-day: NOEL [2, 14]
1000 mg/kg-day: LOEL [2, 14]
100 mg/kg-day: LOEL [2, 15]
< 100 mg/kg-day: NOEL [2, 15]
